# Measured values published in PMC11601558, “SLC6A19 inhibition facilitates urinary neutral amino acid excretion and lowers plasma phenylalanine” (JCI Insight, 2024).
# Where “and” joins values, the source holds several entries; their conditions need not be identical. Equal entries are not always repeated.
# Experiments:
# [1] = test system: T1, SLC7A5 co-expressed with SLC3A2; experiment: SLC7A5 isoleucine transport assay; assay type: cell-based, human; settings: for SLC7A5 transport (Fig S2 curve point): technical replicates
# T1 construct: V5; expressed in transfected cells; host or cells: Flp-In T-Rex 293 cells (Thermo Fisher), SLC7A5 tetracycline-induced
# Description: (§1) Supplementary Materials and Methods
# Flp-In T-Rex 293 cells (Thermo Fisher) were engineered to induciblyexpress either V5-tagged human SLC1A5, SLC6A8 or SLC7A5 co-expressed with myc-DDK-tagged SLC3A2. Cells expressing SLC 1A5 or SLC6A8 were maintained in either DMEM or DMEM/F12 media supplemented with 10% FBS, 100 U/mL penicillin, 100 μg/mL streptomycin, 200 μg/mL hygromycin, and 10 μg/mL blasticidin. For cells expressing SLC7A5/SLC3A2, the media was additionally supplemented with 300 μg/mL geneticin. All cell lines were maintained at 37°C and 5% CO2. For transport experiments, all cell lines were plated in poly-D-lysine-coated 96-well plates at a density of 35,000 cells/well. One day after plating, expression of SLC1A5, SLC6A8 or SLC7A5 was induced by adding tetracycline at a concentration of 1 μg/mL. Cells were induced for 24 h prior to transport assays. […]
# SLC7A5 isoleucine transport assay
# Following a 24 h induction with tetracycline, cells were washed with sodium -free LCIS (20 mM HEPES, 140 mM choline chloride, 2.5 mM KCl, 1.8 mM CaCl2, 1 mM MgCl2, pH 7.4) before JNT-517 was added in 8-point concentration-response diluted in sodium-free LCIS. JPH203 (Selleckchem) was used as a positive control (34)at a concentration of 1.3 μM and DMSO was used as a negative control. Cells were incubated for 30 min at room temperature before a mixture of unlabeled L-isoleucine (Millipore Sigma) and 10 μCi/mL 4,5 -3H(N)-labeled L-isoleucine (American Radiolabeled Chemicals) was added at a concentration of 50 μM. After a 2 min incubation at room temperature, cells were washed once with sodium -free LCIS and lysed in scintillation fluid (PerkinElmer). The uptake of radioactive substrate was measured on a Microbeta2 microplate counter (PerkinElmer). […]
# human SLC1A5 = test system: T2, human SLC1A5; experiment: SLC1A5 glutamine transport assay; assay type: cell-based; settings: for SLC1A5 transport (Fig S2 curve point): technical replicates
# T2 construct: V5; expressed in transfected cells; host or cells: Flp-In T-Rex 293 cells (Thermo Fisher), tetracycline-induced
# Description: as §1
# Flp-In T-Rex 293 cells (Thermo Fisher) were engineered to induciblyexpress either V5-tagged human SLC1A5, SLC6A8 or SLC7A5 co-expressed with myc-DDK-tagged SLC3A2. Cells expressing SLC 1A5 or SLC6A8 were maintained in either DMEM or DMEM/F12 media supplemented with 10% FBS, 100 U/mL penicillin, 100 μg/mL streptomycin, 200 μg/mL hygromycin, and 10 μg/mL blasticidin. For cells expressing SLC7A5/SLC3A2, the media was additionally supplemented with 300 μg/mL geneticin. All cell lines were maintained at 37°C and 5% CO2. For transport experiments, all cell lines were plated in poly-D-lysine-coated 96-well plates at a density of 35,000 cells/well. One day after plating, expression of SLC1A5, SLC6A8 or SLC7A5 was induced by adding tetracycline at a concentration of 1 μg/mL. Cells were induced for 24 h prior to transport assays.
# SLC1A5 glutamine transport assay
# Following a 24 h induction with tetracycline, cells were washed with LCIS before JNT -517 was added in 8-point concentration-response diluted in live cell imaging solution. D -serine was used as a positive control (32)at aconcentration of 40 mM and 0.5% DMSO was used as a negative control. Cells were incubated for 20 min at room temperature and then placed on ice for an additional 5 minutes. Then, a mixture of unlabeled L-glutamine (Millipore Sigma) spiked with 4.5 μCi/mL 2,3,4- 3H-labeled L-glutamine (American Radiolabeled Chemicals) was added at a final concentration of 100 μM. After a 5 min incubation on ice, cells were washed once with ice - […]
# cold LCIS and lysed in scintillation fluid (PerkinElmer). The uptake of radioactive substrate was measured on a Microbeta2 microplate counter (PerkinElmer). […]
structure (smiles),measurement,setting,value
NC(=O)N1CCC[C@@H](N(C(=O)NCc2ccc(OC(F)(F)F)cc2F)C2CC2)C1 [JNT-517],SLC7A5 transport (Fig S2 curve point),[1]; 0.0160037 uM,105 and 96.7
same,SLC7A5 transport (Fig S2 curve point),[1]; 0.048011 uM,106 and 104
same,SLC7A5 transport (Fig S2 curve point),[1]; 0.144033 uM,99.2 and 100
same,SLC7A5 transport (Fig S2 curve point),[1]; 0.432099 uM,95.2 and 94.5
same,SLC7A5 transport (Fig S2 curve point),[1]; 1.2963 uM,99.2 and 103
same,SLC7A5 transport (Fig S2 curve point),[1]; 3.88889 uM,101 and 96.2
same,SLC7A5 transport (Fig S2 curve point),[1]; 11.6667 uM,108 and 105
same,SLC7A5 transport (Fig S2 curve point),[1]; 35 uM,133 and 120
same,inhibition of SLC7A5,[1]; concentrations up to 35 μM,did not inhibit
same,SLC1A5 transport (Fig S2 curve point),human SLC1A5; 0.0160037 uM,77.6 and 89.2
same,SLC1A5 transport (Fig S2 curve point),human SLC1A5; 0.048011 uM,105 and 120
same,SLC1A5 transport (Fig S2 curve point),human SLC1A5; 0.144033 uM,112 and 122
same,SLC1A5 transport (Fig S2 curve point),human SLC1A5; 0.432099 uM,125 and 131
same,SLC1A5 transport (Fig S2 curve point),human SLC1A5; 1.2963 uM,122 and 116
same,SLC1A5 transport (Fig S2 curve point),human SLC1A5; 3.88889 uM,125 and 121
same,SLC1A5 transport (Fig S2 curve point),human SLC1A5; 11.6667 uM,117 and 115
same,SLC1A5 transport (Fig S2 curve point),human SLC1A5; 35 uM,110 and 117
same,inhibition of SLC1A5,human SLC1A5; concentrations up to 35 μM,did not inhibit
